Here are results for 2 compounds from US20120088803A1, “CONTROL AGENT FOR SOFT ROT AND CONTROL METHOD FOR THE SAME” (Ishihara Sangyo Kaisha, Ltd, priority 2009, published 2012).

In experiment [1] the test system is Erwinia carotovora (potato Erwinia carotovora). The experiment in a line: Test for growth inhibition of potato Erwinia carotovora (PSA medium plate). The experiment is classed as cell-based. The settings on record: for Growing state of Erwinia carotovora (formed colonies): PSA medium, 25 degrees C., 4 days, two plates per cell. On the procedure:
Reference test example: Test for growth inhibition of potato Erwinia carotovora
A test for growth inhibition of Erwinia carotovora in the case of direct application of the control agent to Erwinia carotovora was performed. To previously melted PSA medium (55 degrees C.), a predetermined amount of a pesticide 3-chloro-N-(3-chloro-5-trifluoromethyl-2-pyridyl)-alpha,alpha,alpha-trifluoro-2,6-dinit ro-p-toluidine (fluazinam, Frowncide SC (trade name), manufactured by Ishihara Sangyo Kaisha, Ltd.), ethaboxam wettable powder (Ethaboxam, Gardian (trade name), manufactured by LG Chemical), or streptomycin (Mycin wettable powder (trade name), manufactured by Hokko Chemical Industry Co., Ltd.) and a suspension of Erwinia carotovora (potato Erwinia carotovora) were added and the resulting mixture was stirred well, and then, poured in a plate. Then, the plate was cultured at 25 degrees C. for 4 days, and the growing state of Erwinia carotovora was examined. Thereafter, the formed colonies were examined according to the following three criteria. • +: Equal to the colonies of the untreated group • Plus or minus: Apparently less than the colonies of the untreated group • −: Almost no colonies

For experiment [2], the system named is Chinese cabbage soft rot. The experiment in a line: Test for disease control of Chinese cabbage, field (Example 3 / Comparative example 2). The experiment is classed as in vivo, Erwinia carotovora. Also noted: key to Disease incidence rate: % of examined plants diseased; key to Disease control value: (1 - severity treated/severity untreated) x 100; key to Disease severity: severity index 0-100 from disease index 0-4 weighted counts. The settings on record: for Disease incidence rate / Disease severity / Disease control value: 54 days; for Disease control value: vs untreated plot. From the text:
(§1) (Disease incidence rate)=[(number of diseased plants)/(number of plants examined)]*100
(§2) (Disease severity)={S [(number of diseased plants in each class into which the plants are classified according to the degree of disease)*(disease index)]/[(number of plants examined)*4]}*100
(§3) (Disease control value)={1-[(Disease severity in treated plot)/(Disease severity in untreated plot)]}*100
(§4) Incidentally, the evaluation criteria for the disease index are as follows. • (Disease index) • 0: No lesion • 1: Lesions appear only in part of outer leaves (shipment can be made). • 2: Lesions appear in outer leaves and part of head leaves (the damaged part is removed and shipment as a small size plant can be made, rated Grade B). • 3: Lesions appear in most head leaves or more (shipment cannot be made). • 4: Lesions appear in the entire plant and the plant dies.
(§5) Preparation was performed using 500 g/L of 3-chloro-N-(3-chloro-5-trifluoromethyl-2-pyridyl)-alpha,alpha,alpha-trifluoro-2,6-dinit ro-p-toluidine (fluazinam, Frowncide SC (trade name), manufactured by Ishihara Sangyo Kaisha, Ltd.) such that the amount of the active ingredient was 62.5 g ai/10 a (125 mL product/10 a), 125 g ai/10 a (250 mL product/10 a), and 250 g ai/10 a (500 mL product/10 a), and each amount of dilution water was 150 L/10 a.
(§6) A mulch-sheet for agricultural use was spreaded on soil, and planting holes for settlement (diameter: about 9 cm) were made, and then, the spray solution prepared in the above was sprayed onto the planting holes such that the amount of treated active ingredient was 0.0625 g/m^2 (150 L/10 a) in the case of the spray solution containing the active ingredient at 62.5 g ai/10 a, 0.125 g/m^2 (150 L/10 a) in the case of the spray solution containing the active ingredient at 125 g ai/10 a, and 0.25 g/m^2 (150 L/10 a) in the case of the spray solution containing the active ingredient at 250 g ai/10 a, followed by air-drying. Then, seedlings of Chinese cabbage (cultivar: Musou) grown for 4 weeks in a cell tray (128 holes/nursery box) were planted such that 30 seedlings were planted in one test plot having an area of 6 m^2 with two replications.
(§7) Preparation was performed by diluting streptomycin (Mycin 20 wettable powder (trade name), manufactured by Hokko Chemical Industry Co., Ltd.) with water to 1/1000.
In a field covered with a mulch-sheet for agricultural use, seedlings of Chinese cabbage (cultivar: Musou) grown in a cell tray were planted, in the same manner as in Example 3, and foliage application was performed by spraying the spray solution of streptomycin prepared in (1) (spraying amount per application: 300 L/10 a) three times (13 days, 20 days, and 27 days after the planting of the seedlings).
The degree of disease incidence was examined for all the plants in each test plot 54 days after the start of the test, and the disease severity and the disease control value were evaluated. Incidentally, the disease severity and the disease control value were obtained in the same manner as described above.

Experiment [3] has as its system Chinese cabbage soft rot. As to the kind of experiment: Test for disease control of Chinese cabbage, field (Example 4 / Comparative example 3). The experiment is classed as in vivo, Erwinia carotovora. Also noted: key to Disease incidence rate: % of examined plants diseased; key to Disease control value: (1 − treated/untreated severity)×100; 100 = full control; key to Disease severity: severity index 0–100 from disease classes 0–4 (sum/(plants×4)×100). The settings on record: for Disease incidence rate / Disease severity / Disease control value: 64 days; for Disease control value: vs untreated plot.
Excerpt: as §1, §2, §3, §4, §5
as §6, with “about 5” for “about 9”, “(cultivar: Harebutai 65)” for “(cultivar: Musou)”, “that 19” for “that 30”, “of 2.4” for “of 6”
as §7
In a field covered with a mulch-sheet for agricultural use, seedlings of Chinese cabbage (cultivar: Harebutai 65) grown in a cell tray were planted, in the same manner as in Example 4, and foliage application was performed with a sprayer by spraying the spray solution of streptomycin prepared in (1) (spraying amount per application: 300 L/10 a) twice (27 days and 48 days after the planting of the seedlings).
The degree of disease incidence was examined for all the plants in each test plot 64 days after the start of the test, and the disease severity and the disease control value were evaluated. Incidentally, the disease severity and the disease control value were obtained in the same manner as described above.

[4] abbreviates: 62.5 g ai/10 a, 150 L/10 a onto planting holes, Musou, Average.
[5] abbreviates: 125 g ai/10 a, 150 L/10 a onto planting holes, Musou, Average.
The mark [6] stands for this setting: 125 g ai/10 a, 150 L/10 a onto planting holes, Musou, single replications I-II.
The mark [7] stands for this setting: 250 g ai/10 a, 150 L/10 a onto planting holes, Musou, Average.
The mark [8] stands for this setting: 250 g ai/10 a, 150 L/10 a onto planting holes, Musou, single replications I-II.
Where [9] appears, read: 62.5 g ai/10 a, 150 L/10 a onto planting holes, Harebutai 65, Average.
Setting [10] is: 125 g ai/10 a, 150 L/10 a onto planting holes, Harebutai 65, Average.
The mark [11] stands for this setting: 250 g ai/10 a, 150 L/10 a onto planting holes, Harebutai 65, Average.
The mark [12] stands for this setting: 250 g ai/10 a, 150 L/10 a onto planting holes, Harebutai 65, single replications I-II.
[13] abbreviates: 1/1000 dilution, foliage application three times, Musou, Average.
Where [14] appears, read: 1/1000 dilution, foliage application twice, Harebutai 65, Average.

Several values for one entry are separate records, joined by “and”; a condition that tells them apart may be missing. Equal values may be shown once.

With `O=[N+]([O-])c1cc(C(F)(F)F)c(Cl)c([N+](=O)[O-])c1Nc1ncc(C(F)(F)F)cc1Cl` [Fluazinam, 3-chloro-N-(3-chloro-5-trifluoromethyl-2-pyridyl)-alpha,alpha,alpha-trifluoro-2,6-dinit ro-p-toluidine], the “Growing state of Erwinia carotovora (formed colonies)” value in experiment [1] (Active ingredient concentration 100 ppm) is reported as “+, +”; in experiment [1] (Active ingredient concentration 500 ppm) it was “+, +”; in experiment [1] (Active ingredient concentration 1000 ppm) it was “±, ±”. Also, the “Growth inhibition of Erwinia carotovora (in words)” value in experiment [1] (active ingredient concentration of 1000 ppm, direct application) is “did not inhibit the growth”. Also, the Disease incidence rate in the experiment on Chinese cabbage soft rot [2] (setting [4]) was 100; in the experiment on Chinese cabbage soft rot [2] (62.5 g ai/10 a, 150 L/10 a onto planting holes, cultivar Musou, single replications I-II), 100; in the experiment with Chinese cabbage soft rot [2] (setting [5]) it was 100; in the experiment with Chinese cabbage soft rot [2] (setting [6]), 100; in the experiment with Chinese cabbage soft rot [2] (setting [7]), 83.3; in the experiment with Chinese cabbage soft rot [2] (setting [8]) it was 73.3 and 93.3. Further, the Disease incidence rate in the experiment on Chinese cabbage soft rot [3] (setting [9]) was 44.7; in the experiment with Chinese cabbage soft rot [3] (62.5 g ai/10 a, 150 L/10 a onto planting holes, cultivar Harebutai 65, single replications I-II), 36.8 and 52.6; with Chinese cabbage soft rot [3] (setting [10]) it was 36.1; in the experiment on Chinese cabbage soft rot [3] (setting [11]), 31.2; with Chinese cabbage soft rot [3] (setting [12]), 23.5 and 38.9. The Disease severity is 32.1 in the experiment on Chinese cabbage soft rot [2] (setting [4]); 26.7 and 37.5 in the experiment with Chinese cabbage soft rot [2] (62.5 g ai/10 a, 150 L/10 a onto planting holes, Musou, single replications I-II); 30.9 with Chinese cabbage soft rot [2] (setting [5]); 33.3 and 28.4 with Chinese cabbage soft rot [2] (setting [6]); 25 in the experiment on Chinese cabbage soft rot [2] (setting [7]); 20 and 30 in the experiment with Chinese cabbage soft rot [2] (setting [8]). The Disease severity with Chinese cabbage soft rot [3] (setting [9]) was 13.8; with Chinese cabbage soft rot [3] (62.5 g ai/10 a, 150 L/10 a onto planting holes, Harebutai 65, single replications I-II) it was 9.2 and 18.4; with Chinese cabbage soft rot [3] (setting [10]), 10.5; with Chinese cabbage soft rot [3] (setting [11]) it was 8.5; with Chinese cabbage soft rot [3] (setting [12]), 5.9 and 11.1. Besides, the Disease control value in the experiment with Chinese cabbage soft rot [2] (62.5 g ai/10 a, 150 L/10 a onto planting holes, Musou) was determined as 28.7; with Chinese cabbage soft rot [2] (125 g ai/10 a, 150 L/10 a onto planting holes, Musou), 31.3; in the experiment on Chinese cabbage soft rot [2] (250 g ai/10 a, 150 L/10 a onto planting holes, Musou) it was 44.4; in the experiment on Chinese cabbage soft rot [3] (62.5 g ai/10 a, 150 L/10 a onto planting holes, Harebutai 65), 56.3; with Chinese cabbage soft rot [3] (125 g ai/10 a, 150 L/10 a onto planting holes, Harebutai 65), 66.8; with Chinese cabbage soft rot [3] (250 g ai/10 a, 150 L/10 a onto planting holes, Harebutai 65), 73.1. Moreover, the “Control effect on Chinese cabbage soft rot compared with foliage application of streptomycin (in words)” value in the experiment on Chinese cabbage soft rot [2] (Table 3 test, moderate incidence conditions, even at 62.5 g ai/10 a or 125 g ai/10 a) was “a higher control effect”; in the experiment with Chinese cabbage soft rot [3] (Table 4 test, moderate incidence conditions, even at 62.5 g ai/10 a or 125 g ai/10 a), “a higher control effect”.

`[H]/N=C(/N)N[C@H]1[C@H](O)[C@@H](O)[C@H](O[C@@H]2O[C@@H](C)[C@](O)(C=O)[C@H]2O[C@@H]2O[C@@H](CO)[C@H](O)[C@@H](O)[C@@H]2NC)[C@@H](N/C(N)=N\[H])[C@@H]1O` [Streptomycin, streptomycin]: the “Growing state of Erwinia carotovora (formed colonies)” value is “−, −” in experiment [1] (Active ingredient concentration 1 ppm) and “−, −” in experiment [1] (Active ingredient concentration 10 ppm). For the same compound, the Disease incidence rate in the experiment on Chinese cabbage soft rot [2] (1/1000 dilution, foliage application 300 L/10 a three times (13, 20, 27 days), Musou, single replications I-II) is 100; in the experiment on Chinese cabbage soft rot [2] (setting [13]), 100; in the experiment on Chinese cabbage soft rot [3] (1/1000 dilution, foliage application 300 L/10 a twice (27 and 48 days), Harebutai 65, single replications I-II), 44.4 and 63.2; with Chinese cabbage soft rot [3] (setting [14]) it was 53.8. Also, the Disease severity is 36.7 in the experiment with Chinese cabbage soft rot [2] (setting [13]); 32.5 and 40.8 in the experiment with Chinese cabbage soft rot [2] (1/1000 dilution, foliage application three times, Musou, single replications I-II); 14.9 with Chinese cabbage soft rot [3] (setting [14]); 13.9 and 15.8 in the experiment on Chinese cabbage soft rot [3] (1/1000 dilution, foliage application twice, Harebutai 65, single replications I-II). In addition, the Disease control value in the experiment with Chinese cabbage soft rot [2] (1/1000 dilution, foliage application three times, Musou) was 18.4; in the experiment with Chinese cabbage soft rot [3] (1/1000 dilution, foliage application twice, Harebutai 65), 52.8.
